Results published in patent US20190375778A1, “ADENOSINE DERIVATIVES FOR USE IN THE TREATMENT OF CANCER” (NuCana plc, priority 2016, published 2019).
pIC50: −log10 of the molar value.

Assays:
[1] = tested on: FM3A; experiment: Cytotoxicity, FM3A; assay type: cell-based, murine; conditions: Mus musculus, read-out: absolute IC50, FM3A
Source text: (§1) Lovo: cell line derived from a metastatic site in a patient with colon cancer MCF7: human oestrogen sensitive mammary epithelial cell line PC3: human prostate cancer cell line A549: cancerous lung tissue derived cells L1210: lymphoblast cell line derived from a mouse with lymphocytic leukaemia FM3A: mammary carcinoma murine cells CEM: human T-lymphoblasts, derived from the blood of a patient with acute lymphoblastic leukaemia HeLa: epithelial cells from a patient with cervical adenocarcinoma

[2] = tested on: PC3; experiment: MTT cytotoxicity assay, PC3; assay type: cell-based; conditions: Homo sapiens, PC-3, 96 h compound exposure, read-out: absolute IC50, PC3
Source text: as §1
Anti-tumour evaluation in MCF7, LoVo, A549 and PC3 cell lines was performed by MTT assay. Compounds were prepared as 0.1-100 mM stock solutions dissolved in DMSO and stored at −20° C. Cells were seeded into 96-well microtitre plates at a density of 5×10^3 cells per well and allowed 24 hours to adhere. Decimal compound dilutions were prepared in medium immediately prior to each assay (final concentration 0.1-100 μM). Experimental medium was DMEM+10% FCS (PC3 and Lovo) or RPMI+10% heat inactivated FCS (A549 and MCF7). Following 96 h compound exposure at 37° C., 5% CO2, MTT reagent (Sigma Aldrich) was added to each well (final concentration 0.5 mg/ml). Incubation at 37° C. for 4 h allowed reduction of MTT by viable cells to an insoluble formazan product. MTT was removed and formazan solubilised by addition of 10% Triton X-100 in PBS. Absorbance was read on a Tecan Sunrise spectrophotometer at 540 nm as a measure of cell viability; thus inhibition relative to control was determined (IC50).

[3] = tested on: HL-60; experiment: ATP ViaLight cytotoxicity assay, HL-60; assay type: cell-based; conditions: Homo sapiens, HL-60, 72 h
Procedure: HL-60, CTS, and K-562 are leukaemia cell lines, which were obtained from the American Type Culture Collection (ATCC), Middlesex. HL-60 cell line is of acute promyelocytic leukaemia; CTS cell line is of acute myeloid leukaemia; and K-562 cell line is of chronic myeloid leukaemia.
HL-60, CTS, and K-562 cell lines were cultured in RPMI-1640 medium (Sigma Aldrich, UK), which was supplemented with 10% Fetal Bovine Serum (FBS) (PAA Laboratories), 1% amphotericin B (5.5 ml) and 1% penicillin/streptomycin (5.5 ml) (PAA Laboratories) and grown in flasks at 37° C. incubator with 5% CO2.
(§2) For inhibitor studies the cell lines were treated in the same way as described above but before treatment with drugs, a number of inhibitors were added: • 1) Nitrobenzylthioinosine (NBTI) (Sigma-Aldrich, St. Louis, Mo.) inhibits hENT1. • 2) A-134974 dihydrochloride hydrate (Sigma-Aldrich, St. Louis, Mo.) inhibits adenosine kinase. • 3) EHNA hydrochloride (Sigma-Aldrich, St. Louis, Mo.) inhibits adenosine deaminase.
ATP ViaLight™ plus assay kit (Lonza, USA: Product No. LT07-121) was used for treating the cells in luminescence compatible 96 well plates (initial concentration of cells was 1×10^4 cells/well) with 8-Cl-A and ProTides, concentrations: 0, 0.1, 0.5, 1, 5 and 10 μM were added to cells, respectively, followed by incubation for 72 hours at 37° C. incubator with 5% CO2. For inhibitor studies, […] concentration of each inhibitor was added before drugs and incubated for 72 hours at 37° C. with 5% CO2.
After incubation, 50 μl of cell lysis reagent was added to the 96 well plates to release the intracellular ATP, followed by 100 μl of ATP monitoring reagent (AMR). The luminescent values of each well were determined using FLUOstar OPTIMA microplate reader (BMG Labtech) which converted ATP into light by using luciferase enzyme.
(§3) The dose-response curves of cytotoxicity of the drugs was determined using non-linear regression analysis of percentage cell viability versus concentration and EC50 values were obtained. The intracellular assay was conducted in five repeats for each condition. Intracellular assay was determined using paired T test (two-tailed) analysis of 8-ChloroATP/ATP concentration and p values were obtained. Drug stability in human plasma was determined using two-way ANOVA analysis. For all the analysis, Prism Software program (GraphPad Software) was used.

[4] = tested on: K-562 cell line; experiment: Intracellular 8-Cl-ATP/ATP by LC-MS/MS, K-562; assay type: cell-based; conditions: for difference in intracellular accumulation of 8-Cl-ATP on inhibiting hENT1: K-562, with NBTI
Procedure: Cell lines with 3×10^6 cells/ml were used. Cells were treated with 1 μl of 20 μM of each 8-Cl-A, compound A, compound B and compound D and incubated for 2 hours at 37° C. with 5% CO2. After incubation, the cells were centrifuged (ambient, 1200 rpm, 5 minutes), the supernatant was removed, and the pellet was washed with lml of PBS and centrifuged (ambient, 1200 rpm, 5 minutes). The supernatant was removed, the pellet was reconstituted in 100 μl of PBS and 100 μl of 0.8M perchloric acid. This was then centrifuged (ambient, 1200 rpm, 5 minutes) and 180 μl of the supernatant was transferred to new tubes and stored at −80° C. until time of analysis.
as §2
Cells were treated with 1 μl of 10 μM of each inhibitor and left for 5 minutes before adding the drug. The cells were then incubated for 2 hours at 37° C. with 5% CO2.
The analytes were resolved using an ultra-performance liquid chromatography system (Accela UPLC, Thermo Scientific, UK) equipped with a Biobasic A×5 μm, 50×2.1 mm column (Thermo Electron Corporation, Murrieta, Calif., USA) and mobile phase consisting of a mixture of 10 mM NH4Ac in ACN/H2O (30:70 v/v), pH6.0 (A), and 1 mM NH4Ac in ACN/H2O (30:70 v/v), pH10.5 (B). The mobile phase gradient was employed, comprising: buffer A=95% at 0-0.5 minutes, from 95 to 0% over 1.25 minutes, held at 0% for 1.75 minutes, from 0-95% over 0.1 minutes, ending with 95% for 2.9 minutes, all at a flow rate of 500 μl/min.
For compounds detection a triple stage quadrupole Vantage mass spectrometry system (Thermo Scientific, UK) equipped with an electrospray ion source was used. Samples were analysed in the Multiple Reaction Monitoring, negative ion modes at spray voltage 3000V.
as §3

[5] = with A-134974 (adenosine kinase inhibitor)

## C[C@H](NP(=O)(OC[C@H]1O[C@@H](n2c(Cl)nc3c(N)ncnc32)[C@H](O)[C@@H]1O)Oc1ccccc1)C(=O)OCc1ccccc1 (mixture of isomers) [C, (2S)-Benzyl 2-(((((2R,3S,4R,5R)-5-(6-amino-8-chloro-9H-purin-9-yl)-3,4-dihydroxy-tetrahydrofuran-2-yl)methoxy)(phenoxy)phosphoryl)amino)propanoate]
[1]
  pIC50: 4.00 to 4.82
[2]
  pIC50: 5.30 to 7.00

## Nc1ncnc2c1nc(Cl)n2[C@@H]1O[C@H](COP(=O)(NCC(=O)OC2CCCCC2)Oc2ccccc2)[C@@H](O)[C@H]1O (mixture of isomers) [Compound A, Cyclohexyl 2-(((((2R,3S,4R,5R)-5-(6-amino-8-chloro-9H-purin-9-yl)-3,4-dihydroxy-tetrahydrofuran-2-yl)methoxy)(phenoxy)phosphoryl)amino)acetate]
[3]; Control (no inhibitor)
  EC50: 12.4 µM
[1]
  pIC50: < 4.00
[2]
  pIC50: 4.00 to 4.82
[4]; K-562, with A-134974
  difference in 8-Cl-ATP concentration on inhibiting adenosine kinase: did not produce significant difference
[4]
  difference in intracellular accumulation of 8-Cl-ATP on inhibiting hENT1: did not produce significant difference

## Nc1ncnc2c1nc(Cl)n2[C@@H]1O[C@H](COP(=O)(NCC(=O)OCc2ccccc2)Oc2ccccc2)[C@@H](O)[C@H]1O (mixture of isomers) [Compound B, Benzyl 2-(((((2R,3S,4R,5R)-5-(6-amino-8-chloro-9H-purin-9-yl)-3,4-dihydroxytetra-hydrofuran-2-yl)methoxy)(phenoxy)phosphoryl)amino)acetate]
[3]; Control (no inhibitor)
  EC50: 0.49 µM
[3]; [5]
  EC50: 14.6 µM
[3]; with NBTI (hENT1 inhibitor)
  EC50: 8.76 µM
[1]
  pIC50: 5.30 to 7.00
[2]
  pIC50: 5.30 to 7.00
[4]
  difference in intracellular accumulation of 8-Cl-ATP on inhibiting hENT1: did not produce significant difference

## Nc1ncnc2c1nc(Cl)n2[C@@H]1O[C@H](CO)[C@@H](O)[C@H]1O [8-chloroadenosine, 8-Chloroadenosine, reference compound]
[3]; Control (no inhibitor)
  EC50: 0.64 µM
[3]; with NBTI (hENT1 inhibitor)
  EC50: 0.96 µM
[1]
  pIC50: 5.30 to 7.00
[2]
  pIC50: 5.30 to 7.00
[4]; K-562, with A-134974
  8-Cl-ATP/ATP ratio after inhibiting adenosine kinase: almost zero

## C[C@H](NP(=O)(OC[C@H]1O[C@@H](n2c(Cl)nc3c(N)ncnc32)C(O)C1O)Oc1cccc2ccccc12)C(=O)OCc1ccccc1 (stereo partly drawn) [Compound D, (2S)-Benzyl 2-(((((2R,3S,4R,5R)-5-(6-amino-8-chloro-9H-purin-9-yl)-3,4-dihydroxy-tetrahydrofuran-2-yl)methoxynaphthalene-1-yloxy)phosphoryl)amino)propanoate]
[3]; Control (no inhibitor)
  EC50: 0.33 µM
[3]; [5]
  EC50: 21.3 µM
[3]; with NBTI (hENT1 inhibitor)
  EC50: 1.23 µM
[4]
  difference in intracellular accumulation of 8-Cl-ATP on inhibiting hENT1: did not produce significant difference

## CC(C)C[C@H](NP(=O)(OC[C@H]1O[C@@H](n2c(Cl)nc3c(N)ncnc32)C(O)C1O)Oc1ccccc1)C(=O)OCc1ccccc1 (stereo partly drawn) [V, 5′-([(Benzyloxy-L-leucin-N-yl)-phenyl]-phosphatyl) 8-chloroadenosine]
[1]
  pIC50: 4.00 to 4.82
[2]
  pIC50: 5.30 to 7.00
